Publication PMC10046862, “Screening of EWI-2-Derived Peptides for Targeting Tetraspanin CD81 and Their Effect on Cancer Cell Migration” (Biomolecules, 2023)
Entries after “also recorded” stand apart in the source; their conditions may differ.

Key:
[1] = tested on: Recombinant CD81 human protein (LEL Phe113-Lys201); assay: Binding assay between EWI-2 peptide array and Alexa Fluor 488-labeled CD81 (screening); conditions: 500 nM labeled CD81, room temperature, 3 h, 3% BSA block; blank-subtracted; fluorescence scan; n = 3
Description: The peptide array was prepared similarly to the method described in previous reports. A peptide library of eight-residue peptides was obtained by overlapping four residues from Ig3 to the C-terminus of human EWI-2 (accession number: Q969P0) (Table S1). Next, the EWI-2 peptide array was synthesized on a Fmoc-β-Alanine-activated cellulose membrane using Fmoc-based chemistry. The synthesis cycle was initiated by deprotecting the N-terminal Fmoc group with 20% piperidine in DMF and then washing it with DMF and EtOH, respectively. […]
The Alexa Fluor™ 488 protein labeling kit (Thermo Fisher Scientific, Waltham, MA, USA) was applied to fluorescently label the CD81 protein. […] The concentration of the labeled CD81 protein solution was finally quantified using a Bradford protein assay kit (Takara Bio Inc., Shiga, Japan).
First, to reduce nonspecific interactions, the peptide array was blocked by 3% BSA in Tris–HCl buffer at room temperature for 15 min, followed by membrane washing with Tris–HCl buffer. […] Finally, the membrane was fluorescence-scanned and imaged by a biomolecular imager (Typhoon FLA 9500; GE Healthcare, Hatfield, UK), before the spot intensity of each peptide was measured using GE Healthcare’s ImageQuant TL 8.1 software.

[2] = tested on: MDA-MB-231 human breast cancer cells; assay: Boyden chamber assay (CytoSelect 96-well cell migration); format: cell-based; conditions: 100 nM, 37 °C, n = 3; for Migration of MDA-MB-231 cells vs non-treatment: 24 h (1 h pre-incubation), 5% CO2, CyQuant GR fluorescence, t-test p < 0.05; for Anti-migration activity, P152 vs scrambled peptides: t-test, comparison with scrambled P152-1 and P152-2 (Figure 5)
Description: A Boyden chamber assay was performed using the CytoSelect™ 96-well cell migration assay kit (8 µm, Fluorometric Format, Cat. No. CBA-106; Cell Biolabs, Inc., San Diego, CA, USA). Human breast cancer MDA-MB-231 cells (HTB-26TM; American Type Culture Collection, Manassas, VA, USA) were suspended in serum-free D-MEM medium (1.85 × 10^5 cells/mL) containing 100 nM CD81-BP, AAAA or CD81 antibody (5A6) at 37 °C and 5% CO2 for 1 h. Then, within the Boyden chamber, 100 µL of the serum-free cell suspension was added to the upper chamber, while 150 µL of 10% FBS-containing medium was placed in the lower chamber. After incubation at 37 °C and 5% CO2 for 24 h, the cells that migrated to the lower chamber were detached from the membrane by cell detachment buffer, lysed by lysis buffer, and stained with CyQuant® GR dye. The fluorescence intensity of the cell lysate was analyzed at 480/520 nm by a microplate reader (Biomedical Solutions, Inc., Stafford, TX, USA).
The experiment was performed with at least three replicates. The t-test was performed using Prism 9 (GraphPad Software, Inc., La Jolla, CA, USA) or Microsoft Excel (Microsoft, WA, USA) to analyze the statistical significance difference. The statistical significance was set at p-value < 0.05.

[3] = molecular target: T1, Recombinant CD81 human protein, large extracellular loop (LEL, Phe113-Lys201), Alexa Fluor 488-labeled (human, UniProt P60033 113-201, Alexa Fluor 488 dye (succinimidyl ester labeling)); assay: peptide or protein array; candidate peptides and control AAAA on cellulose membrane, blocked with 3% BSA; Alexa488-labeled CD81 at 50 nM to 1 µM, room temperature, 3 h; AAAA-subtracted spot intensity fitted to the Hill equation; estimated KD; conditions: both partners purified
T1 construct: two additional amino acids (Gly and Pro) at the N-terminus of the LEL; CD81, human, large extracellular loop (LEL), Phe113-Lys201; also called CD81 protein; CD81 LEL; source: bought: Sino Biological (Cat. No. 14244-HNCH); labeled with the Alexa Fluor 488 protein labeling kit
T1 sequence: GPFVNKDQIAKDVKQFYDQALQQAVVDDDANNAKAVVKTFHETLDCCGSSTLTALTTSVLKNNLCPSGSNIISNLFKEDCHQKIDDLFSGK

ASRTYRLR [Peptide P97]
Spot fluorescence intensity on array (candidate selection) [1]: greater than the average (AVG) and two standard deviations (SD)
Migration of MDA-MB-231 cells vs non-treatment [2]: no distinct inhibition was observed

FMKRLRKR [Peptide P153, EWI-2-derived CD81-BP candidate, FMKRLRKR]
Spot fluorescence intensity on array (candidate selection) [1]: greater than the average (AVG) and two standard deviations (SD)
Migration of MDA-MB-231 cells vs non-treatment [2]: could significantly reduce the migration of MDA-MB-231 cells
Inhibition of migration compared with anti-human CD81 antibody 5A6 ([2]; 24 h): comparable or competitive to an anti-CD81 monoclonal human antibody (5A6)

FRKCKMRL [Peptide P152-1, scrambled peptide of P152 (FRKCKMRL)]
Anti-migration activity, P152 vs scrambled peptides ([2]; 24 h): showed the impact on MDA-MB-23 cell migration as seemingly as the original P152; also recorded: only P152 origin showed statistical significance (p-value < 0.05)

KKRCRFLM [Peptide P152-2, scrambled peptide of P152 (KKRCRFLM)]
Anti-migration activity, P152 vs scrambled peptides ([2]; 24 h): only P152 origin showed statistical significance (p-value < 0.05)

B1: P153 (FMKRLRKR), EWI-2-derived eight-residue peptide (peptide)
peptide: FMKRLRKR
modifications: synthesized on a Fmoc-β-Alanine-activated cellulose membrane
notes: last eight residues of human EWI-2 (immunoglobulin superfamily member 8); also called CD81-BP candidate; source: synthetic peptide, spot-synthesized on cellulose membrane (peptide array)
Kd [3]: 12600 nM

B2: P132 (RSHRLRLH), EWI-2-derived eight-residue peptide (peptide)
peptide: RSHRLRLH
modifications: synthesized on a Fmoc-β-Alanine-activated cellulose membrane
notes: eight-residue stretch of human EWI-2 (immunoglobulin superfamily member 8), between the Ig3 domain and the C-terminus; also called CD81-BP candidate; source: synthetic peptide, spot-synthesized on cellulose membrane (peptide array)
Kd [3]: 1630 nM

B3: P152 (CFMKRLRK), EWI-2-derived eight-residue peptide (peptide)
peptide: CFMKRLRK
modifications: synthesized on a Fmoc-β-Alanine-activated cellulose membrane
notes: eight-residue stretch of human EWI-2 (immunoglobulin superfamily member 8), near the C-terminus; For the migration assay the peptide was made as a free powder on Rink amide resin; also called CD81-BP candidate; source: synthetic peptide, spot-synthesized on cellulose membrane (peptide array)
Kd [3]: 910 nM

B4: P97 (ASRTYRLR), EWI-2-derived eight-residue peptide (peptide)
peptide: ASRTYRLR
modifications: synthesized on a Fmoc-β-Alanine-activated cellulose membrane
notes: eight-residue stretch of human EWI-2 (immunoglobulin superfamily member 8), between the Ig3 domain and the C-terminus; For the migration assay the peptide was made as a free powder on Rink amide resin; also called CD81-BP candidate; source: synthetic peptide, spot-synthesized on cellulose membrane (peptide array)
Kd [3]: 1060 nM
